Source: patent US6410585B1, “Inhibitors of protein tyrosine phosphatase” (priority 1997, dated 2002)
Several values for one entry are separate records, joined by “and”; a condition that tells them apart may be missing. Identical values can stand only once.

Key:
human PTP1B = target: T1, human PTP1B (Homo sapiens, UniProt P18031); experiment: PTP1B assay, pNPP hydrolysis, assayed exactly as for PTP1; type: biochemical; conditions: for inhibition at 1 µM / inhibition at 10 µM / inhibition at 100 µM: Table 2, read-out: PTP1B Inhib PTP1B. % Inhib; for PTP1B Inhib PTP1B. % Inhib: Table 2
T1 construct: human PTP1B (amino acid residues 1-321); made in house; host or cells: E. coli BL21(DE3)
T1 sequence (P18031 1-321): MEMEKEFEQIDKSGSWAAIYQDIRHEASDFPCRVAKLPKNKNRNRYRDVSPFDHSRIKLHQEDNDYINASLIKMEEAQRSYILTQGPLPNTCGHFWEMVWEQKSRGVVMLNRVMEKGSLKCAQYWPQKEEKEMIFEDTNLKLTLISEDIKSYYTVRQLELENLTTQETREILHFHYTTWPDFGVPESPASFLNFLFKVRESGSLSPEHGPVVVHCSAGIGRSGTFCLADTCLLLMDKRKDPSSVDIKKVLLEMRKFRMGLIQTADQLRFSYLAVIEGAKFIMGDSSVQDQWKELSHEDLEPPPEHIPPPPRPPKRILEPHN
Text: The equivalent construct of human PTP1B (amino acid residues 1-321) (cloned from a human placental library), without the GST tag and thrombin cleavage site, was inserted into a pMB replicon and transformed into E. coli BL21(DE3), a strain containing a chromosomal copy of the gene for T7 RNA polymerase under control of a lacUV5 promoter. Expression of PTP1B was induced with isopropyl thiogalactose and the soluble protein was purified by ion exchange, hydrophobic interaction and gel exclusion chromatography for use in the assay to identify PTP inhibitors.
PTP1 activity is measured using either p-nitrophenol phosphate (pNPP) or a triphosphopeptide (that matches residues 1142 through 1153 of the β-subunit and the insulin receptor) as substrate in a 96-well microtiter plate format. An assay pH of 7.2 is used for standard assays (measured 405=9800 at pH 7.2).
Human PTP1B, which is highly homologous to rat PTP1, was assayed exactly as described above for PTP1.
Standard assays are conducted at room temperature in a total volume of 0.2 ml that contains Hepes buffer (50 mM, pH 7.2), NaCl (50 mM), EDTA (1 mM), DTT (1 mM), bovine serum albumin (1 mg/ml), pNPP (1 mM) and PTP1 (35 ng/ml). Compounds (2 μl of 10 mM solutions) are pipetted into wells of microtiter plates followed by 198 μl of premixed reaction mix (with PTP1 and pNPP added immediately before use). The rate of change in A405 is recorded for 60 min. Two wells on each plate contain DMSO controls and two wells contain sodium orthovanadate (1 mM) which inhibits PTP1-catalyzed hydrolysis of pNPP completely. Data are expressed as percent inhibition relative to the average of the DMSO controls measured on the same microtiter plate.

rat PTP1 = target: T2, rat PTP1 (Rattus norvegicus, UniProt P20417); experiment: PTP1 assay, pNPP hydrolysis (rate of change in A405); type: biochemical; conditions: pNPP hydrolysis, Table 2, read-out: PTP1 Inhib PTP1N. % Inhib; for inhibition at 1 µM: Conc 1 uM; for inhibition at 10 µM: Conc 10 uM; for inhibition at 100 µM: Conc 100 uM
T2 construct: a C-terminal truncation of rat PTP1 (amino acid residues 1-322); GST (N, cleaved yes); made in house; host or cells: E. coli strain TG-1 (pGEX-2T)
T2 sequence (P20417 1-322): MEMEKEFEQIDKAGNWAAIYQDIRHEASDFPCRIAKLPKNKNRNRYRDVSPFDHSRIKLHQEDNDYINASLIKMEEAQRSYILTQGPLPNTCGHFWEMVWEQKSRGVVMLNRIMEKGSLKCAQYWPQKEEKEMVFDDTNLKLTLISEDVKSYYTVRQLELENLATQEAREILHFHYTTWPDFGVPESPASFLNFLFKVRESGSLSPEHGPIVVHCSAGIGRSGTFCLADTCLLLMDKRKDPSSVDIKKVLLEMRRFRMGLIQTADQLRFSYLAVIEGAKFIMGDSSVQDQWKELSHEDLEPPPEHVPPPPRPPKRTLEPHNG
In short: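 Thrombin-cleaved rat PTP1 residues 1-322 (35 ng/ml) with 1 mM pNPP in 50 mM Hepes pH 7.2, NaCl, EDTA, DTT, BSA at room temperature. A405 rate followed 60 min. Compounds added as 10 mM solutions; percent inhibition relative to plate DMSO controls, 1 mM orthovanadate as full-inhibition control.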

Row | Structure (SMILES) | inhibition at 1 µM (human PTP1B; Conc 1 uM) | inhibition at 10 µM (human PTP1B; Conc 10 uM) | inhibition at 100 µM (human PTP1B; Conc 100 uM) | inhibition at 1 µM (rat PTP1) | inhibition at 10 µM (rat PTP1) | inhibition at 100 µM (rat PTP1) | PTP1B Inhib PTP1B. % Inhib (human PTP1B; Conc 10 uM) | PTP1B Inhib PTP1B. % Inhib (human PTP1B; Conc 100 uM) | melting point | PTP1B Inhib PTP1B. % Inhib (human PTP1B; Conc 1 uM)
1 | CCCCCNC(=O)C(Cc1ccc(OC(COO)COO)cc1)NC(=O)C(Cc1ccc(C(=O)c2ccccc2)cc1)NC(=O)OC(C)(C)C (stereo not shown) | 9% | 42% | 90% | 10% | 44% | 91% |  |  |  | 
2 | CCCCCNC(=O)C(Cc1ccc(OC(COO)COO)cc1)NC(=O)C(Cc1ccccc1)NC(=O)CCC(=O)O (stereo not shown) | 45% | 87% | 99% | 37% | 84% | 97% |  |  |  | 
3 | CCCCCNC(=O)C(Cc1ccc(OC(COO)COO)cc1)NC(=O)C(Cc1ccccc1)NC(=O)OC(C)(C)C (stereo not shown) | 7% | 48% | 91% | 9% | 42% | 88% |  |  |  | 
4 | CCCCCNC(=O)C(Cc1ccc(OC(COO)COO)cc1)NC(=O)C(C)NC(=O)OC(C)(C)C (stereo not shown) | 7% | 36% | 83% | 0% | 22% | 76% |  |  |  | 
5 | CCCCCNC(=O)C(Cc1ccc(OC(COO)C(=O)O)cc1)NC(=O)NC(Cc1ccc(OCc2ccccc2)cc1)C(=O)O (stereo not shown) | 14% | 63% | 97% | 8% | 55% | 96% |  |  |  | 
6 | CCCCCNC(=O)[C@H](Cc1ccc(OC(C(=O)O)C(=O)O)cc1)NC(=O)C(Cc1ccccc1)NC(=O)OC(C)(C)C (stereo partly shown) | 2% | 8% | 44% |  |  |  |  |  |  | 
7 | CCCCCNC(=O)C(Cc1ccc(OC(COO)COO)cc1)NC(=O)C(Cc1ccccc1)NC(=O)NC(C)(C)C (stereo not shown) | 9% | 40% | 86% |  |  |  |  |  |  | 
8 | CCCCCNC(=O)C(Cc1ccc(OC(COO)COO)cc1)NC(=O)C(Cc1cccc2ccccc12)NC(=O)OC(C)(C)C (stereo not shown) | 3% | 33% | 86% |  |  |  |  |  |  | 
9 | CCCCCNC(=O)C(Cc1ccc(OC(COO)COO)cc1)NC(=O)C(CCCCNC(=O)OCc1ccccc1)NC(=O)OC(C)(C)C (stereo not shown) | 6% | 28% | 79% |  |  |  |  |  |  | 
10 | CCCCCNC(=O)C(Cc1ccc(OCCOO)c(COO)c1)NC(=O)N(Cc1ccccc1)Cc1ccccc1 (stereo not shown) | 11% | 45% | 87% |  |  |  |  |  |  | 
11 | CCCCCNC(=O)C(Cc1ccc(OC(COO)COO)cc1)NC(=O)C(CCSC)NC(=O)OC(C)(C)C (stereo not shown) | 5% | 25% | 74% |  |  |  | 30% | 82% |  | 
12 | CCCCCNC(=O)C(Cc1ccc(OC(COO)COO)cc1)NC(=O)C(CC[S+](C)[O-])NC(=O)OC(C)(C)C (stereo not shown) | 7% | 21% | 67% |  |  |  |  |  |  | 
13 | CCCCCNC(=O)C(Cc1ccc(OC(COO)COO)cc1)NC(=O)C(Cc1c(F)c(F)c(F)c(F)c1F)NC(=O)OC(C)(C)C (stereo not shown) | 5% | 25% | 80% |  |  |  |  |  |  | 
14 | CCCCCNC(=O)C(Cc1ccc(OCCOO)c(COO)c1)NC(=O)CCc1ccccc1 (stereo not shown) | 4% | 15% | 60% |  |  |  |  |  |  | 
15 | CCCCCNC(=O)C(Cc1ccc(OC(COO)COO)cc1)NC(=O)C(CC(C)C)NC(=O)OC(C)(C)C (stereo not shown) | 4% | 24% | 76% |  |  |  |  |  |  | 
16 | CCCCCNC(=O)C(Cc1ccc(OC(COO)COO)cc1)NC(=O)C(COCc1ccccc1)NC(=O)OC(C)(C)C (stereo not shown) | 3% | 19% | 71% |  |  |  |  |  |  | 
17 | CCCCCNC(=O)C(Cc1ccc(OC(COO)COO)cc1)NC(=O)C(CC(N)=O)NC(=O)OC(C)(C)C (stereo not shown) | 9% | 40% | 85% |  |  |  |  |  |  | 
18 | CCCCCNC(=O)C(Cc1ccc(OC(COO)COO)cc1)NC(=O)CNC(=O)OCc1ccccc1 (stereo not shown) | 6% | 19% | 66% |  |  |  |  |  |  | 
19 | CCCCCNC(=O)C(Cc1ccc(OC(COO)COO)cc1)NC(=O)C(Cc1ccc(O)cc1)NC(=O)OC(C)(C)C (stereo not shown) | 10% | 50% | 90% |  |  |  |  |  |  | 
20 | CCCCCNC(=O)[C@H](Cc1ccc(OCC(=O)O)c(-c2nn[nH]n2)c1)NC(=O)[C@H](Cc1ccccc1)NC(=O)OC(C)(C)C |  |  | 87% |  |  |  |  | 97% |  | 
21 | CC(C)(C)OC(=O)N[C@@H](Cc1ccccc1)C(=O)N[C@H](CO)Cc1ccc(OCC(=O)O)c(C(=O)O)c1 [Example 138, 5-[(2S)-2-({(2S)-2-[(tert-butoxycarbonyl)amino]-3-phenylpropanoyl}amino)-3-hydroxypropyl]-2-(carboxymethoxy)benzoic Acid] |  |  |  |  |  |  |  |  | 168.8 to 172.3 °C | 
22 | CCCCCNC(=O)C(Cc1ccc(OCCOO)c(COO)c1)NC(=O)C(Cc1ccccc1)NC(=O)OC(C)(C)C (stereo not shown) [drawing 162] |  |  |  | 40% | 84% | 97% | 78% and 54% and 43% | 97% and 89% and 87% |  | 
23 | CCCCCNC(=O)C(Cc1ccc(OCCOO)c(COO)c1)NC(=O)C(Cc1ccccc1)NC(=O)OC(C)(C)C (stereo not shown) [drawing 189] |  |  |  |  |  |  | 19% | 69% |  | 2%
24 | CC(C)(C)OC(=O)N[C@@H](Cc1ccccc1)C(=O)N[C@@H](Cc1ccc(OCC(=O)O)c(C(=O)O)c1)C(=O)NCCCCc1ccccc1 [drawing 221] | 64% | 93% | 98% |  |  |  |  |  |  | 
25 | CC(C)(C)OC(=O)N[C@@H](Cc1ccccc1)C(=O)N[C@H](CO)Cc1ccc(OCC(=O)O)c(C(=O)O)c1 [drawing 222] | 5% | 31% | 80% |  |  |  |  |  |  | 
